Data: BigSolDB 2.1

CCCCN(CCCC)CC(O)c1cc(Cl)cc2c1-c1ccc(Cl)cc1/C2=C/c1ccc(Cl)cc1 (stereo not given)
solubility (mole fraction)
Details	278.15 K	283.15 K	288.15 K	293.15 K	298.15 K	303.15 K	308.15 K	313.15 K	318.15 K	323.15 K
in ethanol	5.32e-05	7.11e-05	9.63e-05	0.000127	0.000158	0.000213	0.000265	0.000323	0.000401	0.000497
in ethyl acetate	0.00178	0.00233	0.00315	0.00409	0.00538	0.0069	0.009	0.0116	0.0151	0.0201
in methanol	1.34e-05	1.7e-05	2.27e-05	3.03e-05	3.81e-05	4.95e-05	6.28e-05	8.17e-05	0.000105	0.000136
in methyl acetate	0.000656	0.000903	0.00136	0.00186	0.00262	0.00364	0.00495	0.00669	0.00913	0.0126
in n-butanol	0.000137	0.000182	0.000281	0.00038	0.000493	0.00065	0.000851	0.00115	0.00147	0.00187
in n-butyl acetate	0.00423	0.00531	0.00672	0.00864	0.0108	0.0137	0.0175	0.0223	0.0285	0.0359
in n-heptanol	0.000337	0.000437	0.000586	0.000781	0.0011	0.00149	0.00193	0.00245	0.00339	0.0045
in n-hexanol	0.00021	0.000315	0.000477	0.000604	0.000886	0.00119	0.00171	0.00214	0.00289	0.00387
in n-octanol	0.000352	0.000474	0.00073	0.000945	0.00125	0.00172	0.00221	0.00298	0.00385	0.00516
in n-pentanol	0.000215	0.00028	0.000423	0.000555	0.000745	0.000968	0.0013	0.0017	0.0022	0.00288
in n-pentyl acetate	0.00474	0.00654	0.00846	0.011	0.0137	0.0168	0.0211	0.0252	0.0326	0.0406
in n-propanol	8.62e-05	0.000107	0.000145	0.00021	0.000279	0.000388	0.000502	0.000696	0.000967	0.00131
in n-propyl acetate	0.00281	0.00365	0.00485	0.00653	0.00838	0.0109	0.0139	0.018	0.0231	0.0304
